Source: paper doi:10.1101/2024.05.02.592243v1, “Vestibular Modulation by Stimulant Derivatives in a Pentameric Ligand-Gated Ion Channel” (biorxiv, 2024)

Assays:
[1] = molecular target: T1, sTeLIC (endosymbiont of Tevnia jerichonana, UniProt G2FID1); assay: two-electrode voltage clamp, Xenopus laevis oocytes; type: cell-based; parameters: gene TevJSym_bc00020; homopentamer (C5); oocyte rows: sTeLIC cDNA in vector pMT3, Xenopus laevis oocytes; details: pH 8.5 (~EC20), 30-s coapplication, -40 mV
T1 sequence (G2FID1 1-320): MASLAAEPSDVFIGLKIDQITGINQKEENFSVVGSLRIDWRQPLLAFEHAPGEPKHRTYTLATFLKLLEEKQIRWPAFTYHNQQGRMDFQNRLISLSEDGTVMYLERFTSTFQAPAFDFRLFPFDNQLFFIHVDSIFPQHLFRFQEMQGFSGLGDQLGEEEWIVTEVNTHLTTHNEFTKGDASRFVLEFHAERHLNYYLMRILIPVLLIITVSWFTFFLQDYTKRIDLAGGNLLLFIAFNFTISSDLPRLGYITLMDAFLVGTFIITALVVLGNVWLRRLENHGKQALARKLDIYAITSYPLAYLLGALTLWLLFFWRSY

[2] = molecular target: T1, sTeLIC; assay: X-ray co-crystal structure, […] A, anomalous Br signal; type: binding; parameters: gene TevJSym_bc00020; homopentamer (C5); oocyte rows: sTeLIC cDNA in vector pMT3, Xenopus laevis oocytes; structures: N-terminal MBP fusion (pET20b, E. coli C43(DE3)), MBP cut off with thrombin; details: pH 8.0, DDM/NDG detergent, 3 mM ligand; vestibular site, open state
[3] = molecular target: T1, sTeLIC; assay: cryo-EM structure; type: binding; parameters: gene TevJSym_bc00020; homopentamer (C5); oocyte rows: sTeLIC cDNA in vector pMT3, Xenopus laevis oocytes; structures: N-terminal MBP fusion (pET20b, E. coli C43(DE3)), MBP cut off with thrombin; details: pH 7.5, saposin nanodisc, 2 mM FFC-8; density in vestibular site, open state

SMILES	% modulation ([1]; positive allosteric modulator, vestibular site, up to 200 uM)	X-ray co-crystal structure, 3.2 A, anomalous Br signal [2]	% modulation ([1]; positive modulator, micromolar concentrations)	cryo-EM structure [3]
C[C@H](N)Cc1ccc(Br)cc1 [BrAmp]	BrAmp showed positive modulatory effects similar to BrCA	Anomalous signal from the bromine atom of BrAmp allowed definitive placement in the vestibular pocket		
C[N+](C)(C)CCOP(=O)([O-])OCCC(F)(F)C(F)(F)C(F)(F)C(F)(F)C(F)(F)C(F)(F)F [FFC-8]			micromolar concentrations of FFC-8 potentiated sTeLIC currents in oocytes	This density could reasonably accommodate fluorinated fos-choline-8 (FFC-8)
